Results: paper doi:10.1101/2025.03.30.646166v1 (biorxiv, 2025)

Target: T1, human USP18 residues 52-372 (recombinant) (Homo sapiens, UniProt Q9UMW8)
T1 sequence (Q9UMW8 52-372): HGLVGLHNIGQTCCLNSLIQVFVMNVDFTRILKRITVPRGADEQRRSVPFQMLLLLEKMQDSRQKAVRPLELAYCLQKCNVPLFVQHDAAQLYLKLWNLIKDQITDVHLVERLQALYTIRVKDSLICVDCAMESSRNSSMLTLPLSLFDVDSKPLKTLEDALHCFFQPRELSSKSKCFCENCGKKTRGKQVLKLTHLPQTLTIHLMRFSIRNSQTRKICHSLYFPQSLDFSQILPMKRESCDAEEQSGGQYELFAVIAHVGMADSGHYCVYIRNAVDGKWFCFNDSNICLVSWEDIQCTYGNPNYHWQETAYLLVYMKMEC
Assay: fluorogenic ISG15ct-rhodamine cleavage, dose-response
Assay type: biochemical

## Cc1ccc2[nH]c3c(c2c1)CN(C(=O)c1cc(-c2ccccc2)[nH]n1)CC3 [compound 8655, ZHAWOC8655]
  IC50: 14.1 ± 1.6 µM
